From US10023592B2, “Bromodomain inhibitors” (Celgene Quanticel Research, Inc., priority 2013, dated 2018)
Counter-ions that a name gives are not always drawn.

Target: BRD4(BD1) (Homo sapiens (Human), UniProt O60885)
Assay: In vitro enzyme inhibition assay (BRD4 AlphaScreen)
Assay type: binding
Conditions: not given
Method in brief: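 AlphaScreen proximity readout, using streptavidin donor and Ni-chelate acceptor beads at 5 μg/mL final, monitors biotin-H4 tetraacetylated peptide interaction with purified His-tagged BRD4.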

| Compound | IC50 [nM] |
| --- | --- |
| 8-[2-(cyclopropylmethoxy)-5-ethylsulfonylphenyl]-6-methyl-3,4,4a,8a-tetrahydro-2H-pyrido[4,3-b][1,4]oxazin-5-one [Example 366] | < 500 |

Same assay, conditions: class symbols A/B/C

| Compound | IC50 [nM] |
| --- | --- |
| Cc1c(-c2cccc(NS(C)(=O)=O)c2)cn(C)c(=O)c1C [Example 97, N-[3-(1,4,5-trimethyl-6-oxopyridin-3-yl)phenyl]methanesulfonamide] | 500 to 5000 |
| COc1ccc(-c2cn(C)c(=O)c(N)n2)cc1NS(C)(=O)=O [Example 106, N-[5-(6-amino-4-methyl-5-oxopyrazin-2-yl)-2-methoxyphenyl]methanesulfonamide] | > 5000 |
| Cn1cc(-c2cccc(S(C)(=O)=O)c2)cc(N)c1=O [Example 107, 3-amino-1-methyl-5-(3-methylsulfonylphenyl)pyridin-2-one] | > 5000 |
| COc1ccc(-c2cn(C)c(=O)c3cc(F)ccc23)cc1S(N)(=O)=O [Example 64, 5-(7-fluoro-2-methyl-1-oxoisoquinolin-4-yl)-2-methoxybenzenesulfonamide] | 500 to 5000 |
| Cn1cc(-c2ccc(F)c(N)c2)c2ccccc2c1=O [Example 26, 4-(3-amino-4-fluorophenyl)-2-methylisoquinolin-1-one hydrochloride] | 500 to 5000 |
| COc1ccc(-c2cn(C)c(=O)c3cnccc23)cc1S(N)(=O)=O [Example 56, 2-methoxy-5-(2-methyl-1-oxo-2,7-naphthyridin-4-yl) benzenesulfonamide] | > 5000 |
| Cn1cc(-c2ccco2)c2ccccc2c1=O [Example 66, 4-(furan-2-yl)-2-methylisoquinolin-1-one] | > 5000 |
| COc1ccccc1-c1cn(C)c(=O)c2ccccc12 [Example 4, 4-(2-methoxyphenyl)-2-methylisoquinolin-1-one] | > 5000 |
| CCS(=O)(=O)Nc1cccc(-c2cn(C)c(=O)c3ccc(-c4ccccc4)cc23)c1 [Example 73, N-[3-(2-methyl-1-oxo-6-phenylisoquinolin-4-yl)phenyl]ethanesulfonamide] | 500 to 5000 |
| CCS(=O)(=O)c1ccc(O)c(-c2cn(C)c(=O)c3ccc(-c4cnn(C)c4)cc23)c1 [Example 80, 4-(5-ethylsulfonyl-2-hydroxyphenyl)-2-methyl-6-(1-methylpyrazol-4-yl) isoquinolin-1-one] | < 500 |
| COc1ccc(-c2cc(NCC3CC3)c(=O)n(C)c2)cc1NS(C)(=O)=O [Example 112, N-[5-[5-(cyclopropylmethylamino)-1-methyl-6-oxopyridin-3-yl]-2-methoxyphenyl]methanesulfonamide] | 500 to 5000 |

Same assay, conditions: in vitro enzyme inhibition assay

| Compound | IC50 [nM] |
| --- | --- |
| CCCCc1cnc(NS(=O)(=O)CC)nc1-c1cc(C)c(=O)n(C(C)C)c1 [Example 511, N-[5-butyl-4-(5-methyl-6-oxo-1-propan-2-ylpyridin-3-yl)pyrimidin-2-yl] ethanesulfonamide] | < 500 |
| CCS(=O)(=O)Nc1ncc(Oc2ccc(F)cc2F)c(-c2cc(C)c(=O)n(C(C)C)c2)n1 [Example 509, N-[5-(2,4-difluorophenoxy)-4-(5-methyl-6-oxo-1-propan-2-ylpyridin-3-yl)pyrimidin-2-yl]ethanesulfonamide] | < 500 |
| CCS(=O)(=O)c1ccc(O[C@H]2CC[C@H](O)CC2)c(-c2cn(C)c(=O)c3cc(F)ccc23)c1 [Example 189, 4-[5-ethylsulfonyl-2-(trans-4-hydroxycyclohexyl)oxyphenyl]-7-fluoro-2-methylisoquinolin-1-one] | < 500 |
| Cn1cc(-c2cc(S(C)(=O)=O)ccc2OCC2CC2)c2c(c1=O)CCC2 [Example 504, 4-[2-(cyclopropylmethoxy)-5-methylsulfonylphenyl]-2-methyl-6,7-dihydro-5H-cyclopenta[c]pyridin-1-one] | < 500 |
| CCS(=O)(=O)c1ccc(O[C@H]2CC[C@H](O)CC2)c(-c2cn(C)c(=O)c3ccc(F)cc23)c1 [Example 188, 4-[5-ethylsulfonyl-2-(trans-4-hydroxycyclohexyl)oxyphenyl]-6-fluoro-2-methylisoquinolin-1-one] | < 500 |
| Cn1cc(-c2nc(CS(C)(=O)=O)ncc2Oc2ccc(F)cc2F)c2ccccc2c1=O [Example 148, 4-[5-(2,4-difluorophenoxy)-2-(methylsulfonylmethyl)pyrimidin-4-yl]-2-methylisoquinolin-1-one] | < 500 |
| [2H]C([2H])([2H])n1cc(-c2cc(NS(=O)(=O)CC)ccc2Oc2ccc(F)cc2F)ccc1=O [Example 141, N-{4-(2,4-difluorophenoxy)-3-[1-(^2H3)methyl-6-oxopyridin-3-yl]phenyl}ethanesulfonamide] | < 500 |
| CCS(=O)(=O)Nc1cccc(-c2cc(C)c(=O)n(C)n2)c1 [Example 480, N-[3-(1,5-dimethyl-6-oxopyridazin-3-yl)phenyl]ethanesulfonamide] | 500 to 5000 |
| CCCCc1cnc(NS(=O)(=O)CC)nc1-c1cc(C(C)C)c(=O)n(C)c1 [Example 512, N-[5-butyl-4-(1-methyl-6-oxo-5-propan-2-ylpyridin-3-yl)pyrimidin-2-yl] ethanesulfonamide] | < 500 |
| CCS(=O)(=O)c1ccc(Oc2ccc(F)cc2F)c(-c2cn(C)c(=O)c3cncnc23)c1 [Example 234, 8-[2-(2,4-difluorophenoxy)-5-ethylsulfonylphenyl]-6-methylpyrido[4,3-d]pyrimidin-5-one] | 500 to 5000 |
| Cn1cc(-c2nc(S(C)(=O)=O)ncc2OCC2CC2)c2ccccc2c1=O [Example 311, 4-[5-(cyclopropylmethoxy)-2-methylsulfonylpyrimidin-4-yl]-2-methylisoquinolin-1-one] | < 500 |
| Cc1cc(-c2cc(OCC(F)(F)F)cc(S(C)(=O)=O)c2)cn(C)c1=O [Example 328, 1,3-dimethyl-5-[3-methylsulfonyl-5-(2,2,2-trifluoroethoxy)phenyl]pyridin-2-one] | < 500 |
| CCS(=O)(=O)c1ccc(NCC2CC2)c(-c2cc(OC)c(=O)n(C)c2)c1 [Example 414, 5-[2-(cyclopropylmethylamino)-5-ethylsulfonylphenyl]-3-methoxy-1-methylpyridin-2-one] | < 500 |
| CCS(=O)(=O)Nc1cc(-c2cc(C)c(=O)n(C)c2)nc(Oc2ccc(F)cc2F)n1 [Example 347, N-[2-(2,4-difluorophenoxy)-6-(1,5-dimethyl-6-oxopyridin-3-yl)pyrimidin-4-yl]ethanesulfonamide] | 500 to 5000 |
| CCCCc1ccc(S(C)(=O)=O)cc1-c1ccc(=O)n(C)c1 [Example 317, 5-(2-butyl-5-methylsulfonylphenyl)-1-methylpyridin-2-one] | < 500 |
| CCS(=O)(=O)Nc1cccc(-c2nn(C)c(=O)cc2C)c1 [Example 479, N-[3-(1,4-dimethyl-6-oxopyridazin-3-yl)phenyl]ethanesulfonamide] | > 5000 |
| CCS(=O)(=O)c1ccc(NCC2CC2)c(-c2cc(NC)c(=O)n(C)c2)c1 [Example 408, 5-[2-(cyclopropylmethylamino)-5-ethylsulfonylphenyl]-1-methyl-3-(methylamino)pyridin-2-one] | < 500 |
| Cn1cc(-c2cc(OCC3CC3)cc(S(C)(=O)=O)c2)c2ccoc2c1=O [Example 350, 4-[3-(cyclopropylmethoxy)-5-methylsulfonylphenyl]-6-methylfuro[2,3-c]pyridine-7-one] | < 500 |
| Cn1cc(-c2nc(S(C)(=O)=O)ncc2Oc2ccc(F)cc2F)c2ccccc2c1=O [Example 151, 4-[5-(2,4-difluorophenoxy)-2-methylsulfonylpyrimidin-4-yl]-2-methylisoquinolin-1-one] | < 500 |
| CCCCc1cnc(NS(=O)(=O)CC)nc1-c1cc(Cl)c(=O)n(C)c1 [Example 360, N-[5-butyl-4-(5-chloro-1-methyl-6-oxopyridin-3-yl)pyrimidin-2-yl]ethanesulfonamide] | < 500 |
| Cc1cc(-c2cc(S(C)(=O)=O)ccc2NC2CCC(F)(F)CC2)cn(C)c1=O [Example 413, 5-[2-[(4,4-difluorocyclohexyl)amino]-5-methylsulfonylphenyl]-1,3-dimethylpyridin-2-one] | < 500 |
| CC(=O)Nc1cc(-c2cccc(NS(C)(=O)=O)c2)cn(C)c1=O [Example 482, N-[5-[3-(methanesulfonamido)phenyl]-1-methyl-2-oxopyridin-3-yl]acetamide] | > 5000 |
| Cn1cc(-c2cc(S(C)(=O)=O)ccc2OCC2CC2)c2ocnc2c1=O [Example 237, 7-[2-(cyclopropylmethoxy)-5-methylsulfonylphenyl]-5-methyl-[1,3]oxazolo[4,5-c]pyridin-4-one] | < 500 |
| CCS(=O)(=O)Nc1ccc(Oc2ccc(F)cc2F)c(-c2cn(C)c(=O)c3c2CCC3)c1 [Example 507, N-[4-(2,4-difluorophenoxy)-3-(2-methyl-1-oxo-6,7-dihydro-5H-cyclopenta[c]pyridin-4-yl)phenyl]ethanesulfonamide] | < 500 |

Test system: Raji, human Burkitts lymphoma cells
Assay: Cell-MTS proliferation assay, Raji
Assay type: cell-based
Conditions: Homo sapiens, Raji; Cell-MTS proliferation, 168 hr
Method: The Cell-MTS assay is a 7-day plate-based colorimetric assay which quantifies the amount of newly generated NADH in the presence or absence of test compound. The NADH level is used for the quantification of cancer cell proliferation.
Established cancer cell lines with a variety of driving mutations were obtained from American Type Culture Collection (ATCC) and routinely passaged according to ATCC protocols. For routine assay, these cells were seeded at densities which enabled ˜90% confluence after 7 days of culture. Raji, human Burkitts lymphoma cells, (cMYC) were seeded at 15,000 cells per 96-well. HL-60, human proleukemia cells, (NRAS, p16, p53, c-Myc amplified) were seeded at 5,000 cells per 96-well. NCI-H460, human non-small cell lung cancer cells, (KRAS, PIK3CA, STLK11, p16) were seeded at 3,000 cells per 96-well. 24 hr after plating, cells received an 11-point dilution of test compound with final concentration ranges from 100 μM to 2.0 nM. […] At the end of this incubation period, 80 μL of media is removed and 20 μL of CellTiter 96® AQueous Non-Radioactive Cell Proliferation Assay soln (Promega) was added. The cells were incubated until the OD490 was >0.6. IC50 values were calculated using the IDBS XLfit software package and include background subtracted OD490 values and normalization to DMSO controls. Cellular proliferation IC50 values were uploaded and archived using the Chem Biography Platform.

| Compound | IC50 [nM] |
| --- | --- |
| CCS(=O)(=O)c1ccc(O[C@H]2CC[C@H](O)CC2)c(-c2cn(C)c(=O)c3cc(F)ccc23)c1 [Example 189, 4-[5-ethylsulfonyl-2-(trans-4-hydroxycyclohexyl)oxyphenyl]-7-fluoro-2-methylisoquinolin-1-one] | < 500 |
| CCS(=O)(=O)c1ccc(O[C@H]2CC[C@H](O)CC2)c(-c2cn(C)c(=O)c3ccc(F)cc23)c1 [Example 188, 4-[5-ethylsulfonyl-2-(trans-4-hydroxycyclohexyl)oxyphenyl]-6-fluoro-2-methylisoquinolin-1-one] | < 500 |
| Cn1cc(-c2nc(CS(C)(=O)=O)ncc2Oc2ccc(F)cc2F)c2ccccc2c1=O [Example 148, 4-[5-(2,4-difluorophenoxy)-2-(methylsulfonylmethyl)pyrimidin-4-yl]-2-methylisoquinolin-1-one] | > 5000 |

Same assay, conditions: Homo sapiens; Cell-MTS proliferation, Raji cells, 168 hr

| Compound | IC50 [nM] |
| --- | --- |
| CCCCc1cnc(NS(=O)(=O)CC)nc1-c1cc(C)c(=O)n(C(C)C)c1 [Example 511, N-[5-butyl-4-(5-methyl-6-oxo-1-propan-2-ylpyridin-3-yl)pyrimidin-2-yl] ethanesulfonamide] | < 500 |
| CCS(=O)(=O)Nc1ncc(Oc2ccc(F)cc2F)c(-c2cc(C)c(=O)n(C(C)C)c2)n1 [Example 509, N-[5-(2,4-difluorophenoxy)-4-(5-methyl-6-oxo-1-propan-2-ylpyridin-3-yl)pyrimidin-2-yl]ethanesulfonamide] | < 500 |
| Cn1cc(-c2cc(S(C)(=O)=O)ccc2OCC2CC2)c2c(c1=O)CCC2 [Example 504, 4-[2-(cyclopropylmethoxy)-5-methylsulfonylphenyl]-2-methyl-6,7-dihydro-5H-cyclopenta[c]pyridin-1-one] | < 500 |
| CCCCc1cnc(NS(=O)(=O)CC)nc1-c1cc(C(C)C)c(=O)n(C)c1 [Example 512, N-[5-butyl-4-(1-methyl-6-oxo-5-propan-2-ylpyridin-3-yl)pyrimidin-2-yl] ethanesulfonamide] | < 500 |
